Data taken from patent publication US20110173718A1, “HERBICIDE TOLERANT PLANTS” (SYNGENTA CROP PROTECTION, INC., priority 2008, published 2011).
Values joined by “and” are separate entries in the source; they are usually repeats but may differ in a detail not shown here. Equal values may be shown once. Marks after values point to notes of the source that are not given here.

Experiments:
Chlamydomonas HST = target: T1, Chlamydomonas HST (Chlamydomonas reinhardtii, UniProt A1JHN0); test: HST assay (TLC, MFBQ formed), recombinant Chlamydomonas HST in E. coli membranes; format: biochemical; conditions: 25 ppm; TLC, estimated amount of MFBQ formed, relative to controls; read-out: Chlamydomonas. HST % I at 25 ppm
T1 construct: GST (N); made in house; host or cells: E. coli (BL21A1 / BL21DE3), membrane fraction
T1 sequence (A1JHN0 51-370): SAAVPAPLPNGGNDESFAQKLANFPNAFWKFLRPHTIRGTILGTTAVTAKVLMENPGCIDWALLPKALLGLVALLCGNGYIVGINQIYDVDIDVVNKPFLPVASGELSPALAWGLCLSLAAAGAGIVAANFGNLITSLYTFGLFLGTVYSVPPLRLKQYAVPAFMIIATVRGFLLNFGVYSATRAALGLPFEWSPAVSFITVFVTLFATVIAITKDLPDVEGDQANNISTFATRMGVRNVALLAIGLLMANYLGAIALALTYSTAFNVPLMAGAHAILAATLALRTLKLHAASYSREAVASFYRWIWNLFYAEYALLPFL
Outline: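 Recombinant GST-fused Chlamydomonas HST in E. coli membranes was incubated with 200 μM farnesyl diphosphate and 100 μM 14C-homogentisate in 50 mM Tricine-NaOH pH 8.5, 20 mM MgCl2 for ~20 min at 28 °C, with compounds in DMSO. Oxidised plus reduced MFBQ was quantified by TLC phosphorimaging. Results are percent inhibition versus no-inhibitor control across doses.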

Arabidopsis HST = target: T2, Arabidopsis HST (Arabidopsis thaliana, UniProt Q1ACB3); test: HST total extraction (non TLC) assay, recombinant Arabidopsis HST from insect cells; format: biochemical; conditions: 3 point dose curves only conducted at 50 μM HPP
T2 construct: GST (factor Xa cleavage site) (N); made in house; host or cells: Sf9 insect cells (baculovirus, pAcG3X), membrane fraction
T2 sequence (Q1ACB3 70-386): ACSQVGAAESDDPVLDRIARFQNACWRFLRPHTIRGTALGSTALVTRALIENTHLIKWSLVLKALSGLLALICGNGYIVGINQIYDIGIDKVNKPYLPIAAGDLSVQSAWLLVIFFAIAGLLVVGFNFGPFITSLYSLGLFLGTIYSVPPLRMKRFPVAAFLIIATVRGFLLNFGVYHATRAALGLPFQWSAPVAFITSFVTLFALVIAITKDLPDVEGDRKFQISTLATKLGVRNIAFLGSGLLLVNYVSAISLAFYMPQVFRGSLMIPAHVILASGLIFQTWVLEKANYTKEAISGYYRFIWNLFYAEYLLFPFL

[1] = tested on: HST in spinach chloroplast extract; test: HST assay (TLC, MFBQ formed), spinach chloroplast extract; format: biochemical; conditions: 25 ppm; TLC, estimated amount of MFBQ formed, relative to controls
Description: HST enzyme preparations for assay are also prepared directly from fresh plant material. For example HST enzyme preparations are from spinach. In the first step intact spinach chloroplasts are prepared from two lots of 500 g of fresh baby spinach leaves (e.g from the salad section of the local supermarket). Prepacked spinach is usually already washed, but if buying loose leaves these must be rinsed in water before proceeding. Stalks, large leaves and mid-ribs are removed. Each 500 g lot of leaves is added to 1.5 l of ‘Grinding medium’ in a 2 L plastic beaker. Grinding medium is cold (4° C.) 50 mM Tricine/NaOH buffer at pH 7.1 containing 330 mM glucose, 2 mM sodium isoascorbate, 5 mM MgCl2 and 0.1% bovine serum albumen The beaker, kept at 4° C., is placed under a Polytron 6000 blender, fitted with a 1.5″cutting probe and the mixture blended in short bursts of 5-8 sec up to 8-10K rpm until all the leaves are macerated. The homogenate is filtered into a 5 L beaker (embedded in an ice bucket) through four layers of muslin, and two layers of 50μ mesh nylon cloth. The filtrate is transferred to 250 ml buckets of a Beckman GS-6 centrifuge and spun at […] (3020 rpm) for 2 min at 4° C. The supernatant is drained away and discarded to leave a sediment of chloroplasts. Chloroplasts are resuspended in a few ml of cold resuspension medium by gentle swirling and gentle use of a quill brush soaked in resuspension medium. Resuspension medium is 50 mM Hepes/KOH pH 7.8 containing 330 mM sorbitol, 2 mM EDTA, 5 mM KH2PO4, 2 mM MgCl2 and 0.1% bovine serum albumen at 4° C. The chloroplasts are resuspended in 5-10 ml of resuspension buffer, recentrifuged down and resuspended again in order to wash them. The chloroplasts are then once again centrifuged down and then broken by resuspension in about 5 ml of 50 mM Tricine-NaOH pH 7.8 to a protein concentration of about 40 mg/ml. The solution is stored frozen at −80° C. in aliquots. This resuspension is defrosted and used directly in HST activity assays. Alternatively, chloroplasts are prepared resuspended in 50 mM Tris/HCl buffer at pH 7.8 containing 330 mM sorbitol (alternative resuspension buffer) and layered on top of a percol gradient (comprising the same buffer containing 45% percol), spun down, the intact chloroplast fraction taken and washed 2 or 3 times in the alternative resuspension buffer and then spun down again, resuspended in breaking buffer (without sorbitol), flash frozen and stored in aliquots at −80° C.
Prenyltransferase (HST) activities are measured by determining the prenylation rates of [U—^14C]homogentisate using farnesyl diphosphate (FDP) as prenyl donor. ^14C homogentisate is prepared from ^14C tyrosine using L amino acid oxidase and HPPD. For inhibitor testing, compounds are dissolved in dimethylsulfoxide (DMSO). DMSO added at up to 2% v/v has no effect on assays. Control assays contain DMSO at the same concentration as in inhibitor containing assays.
Assays using spinach chloroplast extracts (100 μl final volume) contain up to 2 mg of chloroplast protein, 50 mM Tricine-NaOH pH 8.5, 50 mM MgCl2, 200 μM farnesyl diphosphate (FDP) and 26 μM ^14C-homogentisate (167 dpm/pmol). Assays are run for about an hour at 28° C. […] Lipophilic reactions products are extracted and analyzed essentially as described in the literature.
Using the above assays percentage inhibition of the amount of MFBQ formed at a range of doses of inhibitors relative to the control amount obtained with no inhibitor present is reported (Table 1). The better inhibitors give greater percentage inhibition at lower doses.

[2] = tested on: tobacco plants expressing Pseudomonas fluorescens HPPD; test: Glasshouse spray test, Pseudomonas HPPD transgenic tobacco; format: in vivo; conditions: C2 line (Pseudomonas HPPD, T2), individual plants
Text: Tobacco plants expressing the wild-type HPPD gene of Pseudomonas fluorescens strain 87-79 under operable control of the double enhanced 35S CMV promoter region, Nos3′ terminator and TMV translational enhancer were provided as detailed in Example 4 of WO0246387.
(§1) Seed of wild-type tobacco plants, C2 tobacco plants and of the T1 progeny of a further Arabidopsis-HST expressing tobacco line, D2 were planted out in 3 inch pots, grown on, sprayed with compounds 1.1, 2.30 and 3.6 at the rates shown in table 5. Percent damage scores were assessed at 7 DAT. Aside from the presumptive non-transgenic segregants the D2 line containing the Arabidopis HST expression construct offered the highest level of tolerance to the two HST herbicides with the Psuedomonas HPPD, C2 line, offering only marginal tolerance under the conditions of this test.
Transgenic lines of tobacco, soyabean and corn etc. can be engineered to express various heterologous HPPDs derived from, for example Avena (SEQ ID #26), Wheat (SEQ ID #27), Pseudomonas fluorescens (SEQ ID # 25) and Shewanella colwelliana (SEQ ID #28) as, for example, described in WO 02/46387.
(§2) Single copy events amongst the T1 plant lines are identified by their 3:1 segregation ratio (wrt kanamycin and or herbicide) and by quantitative RT-PCR. Seed from the thus selected T1 tobacco (var Samsun) lines are sown in 3 inch diameter pots containing 50% peat, 50% John Innes soil no 3. After growth to the 3 leaf stage, plants are sprayed, as described above, in order to test for herbicide tolerance relative to like-treated non-transgenic tobacco plants.
(§3) Control tobacco plants and transgenic T1 plants expressing either the Pseudomonas or the wheat HPPD gene are sprayed at 37, 111, 333 and 1000 g/ha rates of HST inhibitors and, for example, compound 2.3.
(§4) Plants are assessed and scored for % damage at 16 DAT.

[3] = tested on: wild-type (WT) Samsun tobacco; test: Glasshouse spray test, wild-type tobacco; format: in vivo; conditions: for % damage at 7 DAT: WT Samsun, individual plants
Description: Rooted transgenic T0 plantlets are transferred from agar and potted into 50% peat, 50% John Innes soil no 3 or, for example, MetroMix® 380 soil (Sun Gro Horticulture, Bellevue, Wash.) with slow-release fertilizer in 3 inch round or 4 inch square pots and left regularly watered to establish for 8-12 d in the glass house. Glass house conditions are about 24-27° C. day; 18-21° C. night and approximately a 14 h (or longer in UK summer) photoperiod. Humidity is ˜65% and light levels up to 2000 μmol/m^2 at bench level. Once new tissue emerges and plants they have reached the 2-4 leaf stage some of the clones from each event are sprayed with test chemicals dissolved in water with 0.2-0.25% X-77 surfactant and sprayed from a boom on a suitable track sprayer moving at 2 mph in a DeVries spray chamber with the nozzle about 2 inches from the plant tops. Spray volume is suitably 25 gallons per acre or, for example, […].
Test chemicals are, for example, compound 2.3 at 500 g/ha. At the same time that transgenic plants are sprayed so too are w/t Samsun tobacco plants grown from seed as well as non-transgenic plants regenerated from tissue culture and non-transgenic tissue culture escapes. Damage is assessed versus unsprayed control plants of like size and development.
6 Seed from w/t Samsun tobacco and 8 T1 seed from events B8 and G9 are also planted out in 3 inch pots, grown on for 7 to 12 d and then, as described in the foregoing examples, the plantlets spray tested for resistance to various chemicals and assessed at 14 DAT. Chemicals are formulated in 0.2% X77 and sprayed at a spray volume of 200 l/ha.
as §1, §2, §3, §4

[4] = tested on: Arabidopsis HST transgenic tobacco plants; test: Glasshouse spray test, Arabidopsis HST transgenic tobacco; format: in vivo; conditions: D2 line (Arabidopsis HST, segregating T1), individual plants

SMILES	inhibition at 25 ppm (Chlamydomonas HST)	Estimated IC50 (ppm) (Arabidopsis HST)	Spinach chloroplast extract % I at 25 ppm [1]	% damage at 7 DAT ([2]; 150 gai/ha)	% damage at 7 DAT ([2]; 300 gai/ha)	% damage at 7 DAT ([2]; 450 gai/ha)	% damage at 7 DAT ([3]; 150 gai/ha)	percent damage at 6 DAT ([3]; 300 g/ha, WT, reps)	% damage at 7 DAT ([3]; 300 gai/ha)	% damage at 7 DAT ([3]; 450 gai/ha)	% damage at 7 DAT ([4]; 150 gai/ha)	% damage at 7 DAT ([4]; 300 gai/ha)	% damage at 7 DAT ([4]; 450 gai/ha)
Cc1cc(C)c(-c2c(O)c3nccnc3n(CC(F)F)c2=O)c(C)c1 [Compound 2.11]	80%	31* ppm	30%	–	–	–	–	–	–	–	–	–	–
CC(C)C(=O)OC1=C(c2cc(Cl)ccc2C(F)(F)F)S(=O)(=O)N(CC(F)F)c2nccnc21 [Compound 3.6]	–	–	–	60%	65% (3×) and 70%	65%	80%	65%	80% (2×) and 75%	85%	10% (2×) and 70% (2×) and 30% and 20% and 65% and 25%	65% and 35% and 7% and 85% (2×) and 80% and 75% and 40%	55% and 25% (2×) and 65% (2×) and 70% and 80% and 75%
